Columns and labels:
Format in all cases: cell-based
CCRF-CEM = assay: In vitro cytotoxicity, NCI sixty cell line screen: CCRF-CEM (Leukemia); details: Homo sapiens, Leukemia panel, NCI protocol, read-out: GI50 values (μM conc.)
Experimental: (§1) The in vitro anticancer activity studies for these amidobenzothiazoles were carried out at the National Cancer Institute, Maryland, USA.
(§2) The amidobenzothiazoles have been tested against sixty human tumor cell lines derived from nine cancer types (leukemia cancer cell line, non-small cell lung cancer cell line, colon cancer cell line, CNS cancer cell line, melanoma cancer cell line, ovarian cancer cell line, renal cancer cell line, prostate cancer cell line and breast cancer cell lines). For these compounds results are expressed in GI50 values of that particular cancer cell at micro molar (μM) concentration as per NCI protocol.

K-562 = assay: In vitro cytotoxicity, NCI screen: K-562 (Leukemia); details: Homo sapiens, K562; read-out: GI50 values (μM conc.)
Experimental: as §1, §2

MOLT-4 = assay: In vitro cytotoxicity, NCI screen: MOLT-4 (Leukemia); details: Homo sapiens; MOLT-4, Leukemia panel, NCI protocol; read-out: GI50 values (μM conc.)
Experimental: as §1, §2

EKVX = assay: In vitro cytotoxicity, NCI screen: EKVX (Non-small cell lung); details: Homo sapiens, Non-small cell lung panel, NCI protocol, read-out: GI50 values (μM conc.)
Experimental: as §1, §2

HOP-62 = assay: In vitro cytotoxicity, NCI screen: HOP-62 (Non-small cell lung); details: Homo sapiens; HOP-62, Non-small cell lung panel, NCI protocol; read-out: GI50 values (μM conc.)
Experimental: as §1, §2

HOP-92 = assay: In vitro cytotoxicity, NCI screen: HOP-92 (Non-small cell lung); details: Homo sapiens; HOP-92, Non-small cell lung panel, NCI protocol; read-out: GI50 values (μM conc.)
Experimental: as §1, §2

HCT-116 = assay: In vitro cytotoxicity, NCI screen: HCT-116 (Colon); details: Homo sapiens, read-out: GI50 values (μM conc.)
Experimental: as §1, §2

HCT-15 = assay: In vitro cytotoxicity, NCI screen: HCT-15 (Colon); details: Homo sapiens; HCT-15, Colon panel, NCI protocol; read-out: GI50 values (μM conc.)
Experimental: as §1, §2

KM12 = assay: In vitro cytotoxicity, NCI screen: KM12 (Colon); details: Homo sapiens; KM12, Colon panel, NCI protocol; read-out: GI50 values (μM conc.)
Experimental: as §1, §2

SW-620 = assay: In vitro cytotoxicity, NCI screen: SW-620 (Colon); details: Homo sapiens; SW-620, Colon panel, NCI protocol; read-out: GI50 values (μM conc.)
Experimental: as §1, §2

SNB-19 = assay: In vitro cytotoxicity, NCI screen: SNB-19 (CNS); details: Homo sapiens; SNB-19, CNS panel, NCI protocol; read-out: GI50 values (μM conc.)
Experimental: as §1, §2

SNB-75 = assay: In vitro cytotoxicity, NCI screen: SNB-75 (CNS); details: Homo sapiens; SNB-75, CNS panel, NCI protocol; read-out: GI50 values (μM conc.)
Experimental: as §1, §2

LOX IMVI = assay: In vitro cytotoxicity, NCI screen: LOX IMVI (Melanoma); details: Homo sapiens, Melanoma panel, NCI protocol, read-out: GI50 values (μM conc.)
Experimental: as §1, §2

MDA-MB-435 = assay: In vitro cytotoxicity, NCI screen: MDA-MB-435 (Melanoma); details: Homo sapiens; MDA-MB-435, Melanoma panel, NCI protocol; read-out: GI50 values (μM conc.)
Experimental: as §1, §2

SK-MEL-28 = assay: In vitro cytotoxicity, NCI screen: SK-MEL-28 (Melanoma); details: Homo sapiens; SK-MEL-28, Melanoma panel, NCI protocol; read-out: GI50 values (μM conc.)
Experimental: as §1, §2

SK-MEL-5 = assay: In vitro cytotoxicity, NCI screen: SK-MEL-5 (Melanoma); details: Homo sapiens; SK-MEL-5, Melanoma panel, NCI protocol; read-out: GI50 values (μM conc.)
Experimental: as §1, §2

UACC-257 = assay: In vitro cytotoxicity, NCI screen: UACC-257 (Melanoma); details: Homo sapiens; UACC-257, Melanoma panel, NCI protocol; read-out: GI50 values (μM conc.)
Experimental: as §1, §2

UACC-62 = assay: In vitro cytotoxicity, NCI screen: UACC-62 (Melanoma); details: Homo sapiens; UACC-62, Melanoma panel, NCI protocol; read-out: GI50 values (μM conc.)
Experimental: as §1, §2

OVCAR-3 = assay: In vitro cytotoxicity, NCI screen: OVCAR-3 (Ovarian); details: Homo sapiens; OVCAR-3, Ovarian panel, NCI protocol; read-out: GI50 values (μM conc.)
Experimental: as §1, §2

NCI/ADR-RES = assay: In vitro cytotoxicity, NCI screen: NCI/ADR-RES (Ovarian); details: Homo sapiens, Ovarian panel, NCI protocol, read-out: GI50 values (μM conc.)
Experimental: as §1, §2

A498 = assay: In vitro cytotoxicity, NCI screen: A498 (Renal); details: Homo sapiens; A498, Renal panel, NCI protocol; read-out: GI50 values (μM conc.)
Experimental: as §1, §2

ACHN = assay: In vitro cytotoxicity, NCI screen: ACHN (Renal); details: Homo sapiens, Renal panel, NCI protocol, read-out: GI50 values (μM conc.)
Experimental: as §1, §2

SN12C = assay: In vitro cytotoxicity, NCI screen: SN12C (Renal); details: Homo sapiens, Renal panel, NCI protocol, read-out: GI50 values (μM conc.)
Experimental: as §1, §2

UO-31 = assay: In vitro cytotoxicity, NCI screen: UO-31 (Renal); details: Homo sapiens; UO-31, Renal panel, NCI protocol; read-out: GI50 values (μM conc.)
Experimental: as §1, §2

PC-3 = assay: In vitro cytotoxicity, NCI screen: PC-3 (Prostate); details: Homo sapiens; PC-3, Prostate panel, NCI protocol; read-out: GI50 values (μM conc.)
Experimental: as §1, §2

MCF7 = assay: In vitro cytotoxicity, NCI screen: MCF7 (Breast); details: Homo sapiens; MCF7, Breast panel, NCI protocol; read-out: GI50 values (μM conc.)
Experimental: as §1, §2

BT-549 = assay: In vitro cytotoxicity, NCI screen: BT-549 (Breast); details: Homo sapiens, read-out: GI50 values (μM conc.)
Experimental: as §1, §2

T-47D = assay: In vitro cytotoxicity, NCI screen: T-47D (Breast); details: Homo sapiens, T47D, Breast panel, NCI protocol, read-out: GI50 values (μM conc.)
Experimental: as §1, §2

[1] = system: leukemia cancer cell lines; assay: In vitro activity against leukemia cancer cell lines (panel range); details: Homo sapiens, read-out: GI50 values, range over the listed compounds and the panel
Experimental: as §1, §2

[2] = system: prostate cancer cell lines; assay: In vitro activity against prostate cancer cell lines (panel range); details: Homo sapiens, read-out: GI50 values, range over the listed compounds and the panel
Experimental: as §1, §2

Compound | GI50 (EKVX) [µM] | GI50 (HOP-92) [µM] | GI50 (HCT-116) [µM] | GI50 (HCT-15) [µM] | GI50 (SNB-75) [µM] | GI50 (LOX IMVI) [µM] | GI50 (MDA-MB-435) [µM] | GI50 (UACC-257) [µM] | GI50 (OVCAR-3) [µM] | GI50 (NCI/ADR-RES) [µM] | GI50 (A498) [µM] | GI50 (ACHN) [µM] | GI50 (SN12C) [µM] | GI50 (UO-31) [µM] | GI50 (PC-3) [µM] | GI50 (MCF7) [µM] | GI50 (BT-549) [µM] | GI50 (T-47D) [µM] | GI50 [1] [µM] | GI50 [2] [µM] | other results
COc1ccc(/C=C/C(=O)c2cc(OC)c(OC)c(OC)c2)cc1OCC(=O)Nc1nc2ccc(OC(F)(F)F)cc2s1 [Compound 9j, N1-(6-(trifluoromethoxy)-1,3-benzothiazol-2-yl)-2-{2-methoxy-5-[(E)-3-oxo-3-(3,4,5-trimethoxyphenyl)-1-propenyl]phenoxy}acetamide] | 5.11 | 2.14 | 1.43 | 0.4 | 0.34 | 0.47 | 0.3 | 8.08 | 1.52 | 0.49 | 7.4 | 1.62 | 1.74 | 1.61 | 3.14 | 1.32 | 2.71 | 3.08 | 0.037 to 29.9 | 0.18 to 22.9 | GI50 (CCRF-CEM): 2.5 µM; GI50 (K-562): 0.43 µM; GI50 (MOLT-4): 2.89 µM; GI50 (HOP-62): 2.12 µM; GI50 (KM12): 1.51 µM; GI50 (SW-620): 1.08 µM; GI50 (SNB-19): 1.58 µM; GI50 (SK-MEL-28): 3.31 µM; GI50 (SK-MEL-5): 2.03 µM; GI50 (UACC-62): 9.52 µM
COc1ccc(/C=C\c2cc(OC)c(OC)c(OC)c2)cc1OCC(=O)Nc1nc2ccccc2s1 [Compound 8a, N1-(1,3-benzothiazol-2-yl)-2-{2-methoxy-5-[(Z)-2-(3,4,5-trimethoxyphenyl)-1-ethenyl]phenoxy}acetamide] | 0.038 | 0.039 | 0.046 | 0.048 | 0.046 | 0.067 | 0.019 | 11 | 0.043 | 0.033 | 0.36 | 0.093 | 0.37 | 0.58 | 0.18 | 0.051 | 0.41 | 1 | 0.037 to 29.9 | 0.18 to 22.9 | GI50 (CCRF-CEM): 0.078 µM; GI50 (K-562): 0.042 µM; GI50 (MOLT-4): 0.34 µM; GI50 (KM12): 0.058 µM; GI50 (SK-MEL-5): 0.036 µM; GI50 (UACC-62): 0.063 µM
COc1ccc2nc(NC(=O)COc3cc(/C=C\c4cc(OC)c(OC)c(OC)c4)ccc3OC)sc2c1 [Compound 8g, N1-(6-methoxy-1,3-benzothiazol-2-yl)-2-{2-methoxy-5-[(Z)-2-(3,4,5-trimethoxyphenyl)-1-ethenyl]phenoxy}acetamide] | 5.11 | 6.28 | 3.7 | 2.89 | 1.91 | 4.17 | 1.16 | 63 | 2.17 | 2.3 | 3.5 | 7.77 | 5.75 | 4.31 | 4.45 | 2.88 | 21.2 | 4.03 | 0.037 to 29.9 | 0.18 to 22.9 | GI50 (CCRF-CEM): 3.87 µM; GI50 (K-562): 3.6 µM; GI50 (MOLT-4): 3.87 µM; GI50 (HOP-62): 23 µM; GI50 (KM12): 3.12 µM; GI50 (SW-620): 5.1 µM; GI50 (SNB-19): 6.3 µM; GI50 (SK-MEL-28): 4.41 µM; GI50 (SK-MEL-5): 2.68 µM; GI50 (UACC-62): 5.93 µM
COc1ccc(C2CC(c3cc(OC)c(OC)c(OC)c3)=NN2C(C)=O)cc1OCC(=O)Nc1nc2ccc(C(F)(F)F)cc2s1 (centres unmarked) [Compound 10i, N1-(6-(trifluoromethyl)-1,3-benzothiazol-2-yl)-2-{5-[1-acetyl-3-(3,4,5-trimethoxyphenyl)-4,5-dihydro-1H-5-pyrazolyl]-2-methoxyphenoxy}acetamide] | 4.1 | 1.7 | 2.39 | 9.26 | 1.55 | 3.36 | 3.08 | 3.77 | 1.84 | 3.13 | 2.78 | 2.48 | 3.31 | 1.93 | 2.92 | 4.02 | 3.55 | 2.75 | 0.037 to 29.9 | 0.18 to 22.9 | GI50 (HOP-62): 2.2 µM; GI50 (SW-620): > 100 µM; GI50 (SNB-19): 11 µM; GI50 (SK-MEL-28): 3.56 µM
COc1ccc(/C=C\c2cc(OC)c(OC)c(OC)c2)cc1OCC(=O)Nc1nc2ccc(F)cc2s1 [Compound 8e, N1-(6-fluoro-1,3-benzothiazol-2-yl)-2-{2-methoxy-5-[(Z)-2-(3,4,5-trimethoxyphenyl)-1-ethenyl]phenoxy}acetamide] | 5.72 | 5.73 | 4.48 | 8.19 | 4.39 | 3.23 | 0.33 | 8.69 | 9.99 | 2.55 | 6.25 | 3.33 | 4.61 | 2.56 | 6.74 | 2.3 | 16.7 | 3.39 | 0.037 to 29.9 | 0.18 to 22.9 | GI50 (CCRF-CEM): 3.7 µM; GI50 (K-562): 3.62 µM; GI50 (MOLT-4): 3.07 µM; GI50 (HOP-62): 5.7 µM; GI50 (KM12): 4.78 µM; GI50 (SW-620): 65 µM; GI50 (SNB-19): > 100 µM; GI50 (SK-MEL-28): > 100 µM; GI50 (SK-MEL-5): 1.76 µM; GI50 (UACC-62): 4.05 µM
COc1ccc(/C=C\c2cc(OC)c(OC)c(OC)c2)cc1OCC(=O)Nc1nc2ccc(C(F)(F)F)cc2s1 [Compound 8i, N1-(6-(trifluoromethyl)-1,3-benzothiazol-2-yl)-2-{2-methoxy-5-[(Z)-2-(3,4,5-trimethoxyphenyl)-1-ethenyl]phenoxy}acetamide] | 6.25 | 2.88 | 3.29 | 3.24 | 1.58 | 4.01 | 1.84 | 40 | 2.11 | 2.12 | 2.81 | 4.82 | 4.43 | 3.59 | 4.32 | 3.16 | 5.23 | 4.79 | 0.037 to 29.9 | 0.18 to 22.9 | GI50 (CCRF-CEM): 4.27 µM; GI50 (K-562): 3.3 µM; GI50 (MOLT-4): 3.75 µM; GI50 (HOP-62): 5.22 µM; GI50 (KM12): 3.14 µM; GI50 (SW-620): 4.65 µM; GI50 (SNB-19): 5.03 µM; GI50 (SK-MEL-28): 3 µM; GI50 (SK-MEL-5): 2.84 µM; GI50 (UACC-62): 3.9 µM
